Reference: PubChem BioAssay (NCI)
Values joined by “and” are separate entries in the source; they are usually repeats but may differ in a detail not shown here. Identical values can stand only once.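 All cell lines were grown in 96-well plates and treated with compound for 48 hours. At the GI50, growth is halved. TGI: concentration producing complete growth inhibition.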 Where a SMILES comes first, the peptide text is derived from it. [ ]: non-standard residue; d: D form. The star is where a group is joined. Bn2Val = CC(C)[C@@H](C(=O)*)N(Cc1ccccc1)Cc1ccccc1; NH(3,4-diMeO-benzyl) = COc1ccc(CN*)cc1OC; NMeV = CN[C@H](C(=O)O)C(C)C; dNMeA = CN[C@H](C)C(=O)O

Assays:
Test in all cases: NCI-60 cell line screen, 48 h
SK-MEL-28 melanoma = tested on: SK-MEL-28 melanoma
A549 NSCLC = tested on: A549 NSCLC
MDA-MB-435 = tested on: MDA-MB-435
KM12 colon = tested on: KM12 colon
SNB-19 CNS = tested on: SNB-19 CNS
MCF7 breast = tested on: MCF7 breast
HCC-2998 colon = tested on: HCC-2998 colon
SK-MEL-2 melanoma = tested on: SK-MEL-2 melanoma
SK-MEL-5 melanoma = tested on: SK-MEL-5 melanoma
CCRF-CEM leukemia = tested on: CCRF-CEM leukemia

SMILES	GI50 (SK-MEL-28 melanoma)	TGI (SK-MEL-28 melanoma)	GI50 (A549 NSCLC)	TGI (A549 NSCLC)	GI50 (MDA-MB-435)	TGI (MDA-MB-435)	GI50 (KM12 colon)	TGI (KM12 colon)	GI50 (SNB-19 CNS)	TGI (SNB-19 CNS)	GI50 (MCF7 breast)	TGI (MCF7 breast)	GI50 (HCC-2998 colon)	TGI (HCC-2998 colon)	GI50 (SK-MEL-2 melanoma)	TGI (SK-MEL-2 melanoma)	GI50 (SK-MEL-5 melanoma)	TGI (SK-MEL-5 melanoma)	GI50 (CCRF-CEM leukemia)	TGI (CCRF-CEM leukemia)
O=C1c2ccccc2C(=O)c2c1ccc1[nH]c(CCl)nc21	6.58 µM	18.8 µM	2.81 µM	10.2 µM	3.37 µM	11.8 µM	3.14 µM	10.8 µM	3.52 µM	13.6 µM	1.75 µM	4.2 µM	3.41 µM	12.7 µM	3.26 µM	12.2 µM	1.68 µM	3.07 µM	2.19 µM	6.42 µM
Cn1cc(C2=C(c3ccc(OC[C@@H](O)CO)cc3)C(=O)NC2=O)c2ccccc21	> 25 µM	> 25 µM	> 25 µM	> 25 µM	> 25 µM	> 25 µM	> 25 µM	> 25 µM	> 25 µM	> 25 µM	> 25 µM	> 25 µM	> 25 µM	> 25 µM	> 25 µM	> 25 µM	> 25 µM	> 25 µM	> 25 µM	> 25 µM
COc1cc2c(c(OC)c1OC)-c1ccc(NCc3ccccc3)c(=O)cc1[C@@H](NC(C)=O)CC2	0.499 µM	31.5 µM	0.453 µM	> 100 µM	0.187 µM	0.486 µM	0.374 µM	19.9 µM	0.638 µM	> 100 µM	0.337 µM	19.7 µM	0.529 µM	13.2 µM	0.643 µM	22.8 µM	0.422 µM	1.94 µM	0.34 µM	> 100 µM
N#Cc1nc(-c2ccc(F)cc2)oc1S(=O)(=O)N1CCOCC1	2.41 µM	6.25 µM	18.2 µM	38.7 µM	2.38 µM	6.9 µM	12 µM	26.3 µM	13.7 µM	28 µM	2.65 µM	11.7 µM	11.9 µM	25.5 µM	13.4 µM	27.5 µM	6.33 µM	18.8 µM	1.62 µM	7.35 µM
CC1=C2[C@@H](CC1)[C@]1(C)O[C@@](C(C)C)(C[C@H]1OC(=O)[C@H](C)O)[C@H]2OC(=O)/C=C/c1ccccc1	16.5 µM	34.3 µM	12.5 µM	28.9 µM	15.5 µM	30.9 µM	14.8 µM	33 µM	17.1 µM	37.2 µM	8.15 µM	23.5 µM	13.4 µM	28.2 µM	16.1 µM	33 µM	13.6 µM	26.7 µM	16.2 µM	41.9 µM
COc1nc2c(cc1S(=O)(=O)c1ccccc1)CCc1c-2cnn1-c1ccccc1Cl	> 100 µM	> 100 µM	4.97 µM	> 100 µM	8.94 µM	> 100 µM	4.49 µM	> 100 µM	7.25 µM	> 100 µM	4.13 µM	> 100 µM	> 100 µM	> 100 µM	71.7 µM	> 100 µM	3.31 µM	> 100 µM	7.84 µM	> 100 µM
C[C@@H]1Cc2c([nH]c3ccccc23)[C@@H](c2c(F)cc(/C=C/C(=O)O)cc2F)N1CC(C)(C)F	13.1 µM	30.9 µM	11.6 µM	26.6 µM	14 µM	31 µM	11 µM	28.7 µM	13.7 µM	32.3 µM		25.6 µM	10.4 µM	25.6 µM	13.8 µM	32.8 µM	10.7 µM	24.4 µM	12 µM	33.8 µM
Cc1c(Cl)cccc1Nc1ncccc1C(=O)O	> 100 µM	> 100 µM	> 100 µM	> 100 µM	82.9 µM	> 100 µM	> 100 µM	> 100 µM	> 100 µM	> 100 µM	> 100 µM	> 100 µM	63.3 µM	> 100 µM	> 100 µM	> 100 µM	52.7 µM	> 100 µM	64.2 µM	> 100 µM
COc1cc2c(NCCCCCCO[N+](=O)[O-])ncnc2c(OC)c1OC		> 83 µM		> 95.7 µM		42.3 µM		33.5 µM		> 100 µM		71.4 µM		17.2 µM		53.9 µM		25 µM		67.8 µM
O=[n+]1c(CBr)c(CBr)n([O-])c2ccccc21	14.6 µM	28.1 µM	17.4 µM	35.6 µM	12 µM	25 µM	17.1 µM	31.5 µM	17.6 µM	38.3 µM	3.11 µM	12.4 µM	16.9 µM	31 µM	15.3 µM	29.6 µM	15.9 µM	29.5 µM	2.79 µM	14.2 µM
NS(=O)(=O)c1ccc(-n2nc(-c3ccc(Br)cc3)ccc2=O)cc1	> 10 µM	> 10 µM	> 10 µM	> 10 µM	3.72 µM	> 10 µM	> 10 µM	> 10 µM	> 10 µM	> 10 µM	> 10 µM	> 10 µM	> 10 µM	> 10 µM	> 10 µM	> 10 µM	> 10 µM	> 10 µM	> 10 µM	> 10 µM
CCN1CCN(c2nc(NCCNc3ccnc4cc(Cl)ccc34)c3ccccc3n2)CC1	2.04 µM	3.81 µM	2.21 µM	8.48 µM	1.64 µM	3.14 µM	1.63 µM	5.18 µM	1.99 µM	14 µM	1.11 µM	11 µM	1.69 µM	4.91 µM	2.07 µM	4.33 µM	1.82 µM	3.21 µM	0.759 µM	7.59 µM
Clc1cccc(NC=Nc2ccc(-c3nc4ccccc4s3)cc2)c1	0.143 µM	18.4 µM	9.11 µM	20.4 µM	14.3 µM	32.7 µM	13.7 µM	38.3 µM	15.2 µM	> 50 µM	9.44 µM	35.6 µM	16 µM	42.5 µM	18 µM	> 50 µM	10.5 µM	21.6 µM	10.5 µM	25.4 µM
COc1ccc(CNC(=O)[C@@H](C)N(C)C(=O)[C@@H]2CCCN2C(=O)[C@H](C(C)C)N(C)C(=O)[C@@H](NC(=O)[C@H](C(C)C)N(Cc2ccccc2)Cc2ccccc2)C(C)C)cc1OC (Bn2Val-V[NMeV]P[dNMeA]-{NH(3,4-diMeO-benzyl)})	13.5 µM	17.6 µM and 28.3 µM	53.3 µM	50 µM and > 100 µM	11.1 µM	19.7 µM and 24.1 µM		30 µM and 27.4 µM	> 100 µM	23.9 µM and > 100 µM		25.3 µM		21.2 µM	4.38 µM	15.1 µM and 15 µM		12.1 µM	0.756 µM	16.9 µM and 44.2 µM
OC(c1cccc(C(F)(F)F)c1)c1cnccc1NC1CCCCCC1 (stereo unspecified)	1.73 µM	3.24 µM	3.58 µM	11.4 µM	1.66 µM	3.13 µM	1.93 µM	3.75 µM	1.83 µM	4.08 µM	1.66 µM	3.51 µM	1.74 µM	3.36 µM	1.71 µM	3.34 µM	1.61 µM	3.04 µM	2.56 µM	7.98 µM
COc1cc2c(c(O)c1C)C(=O)C(Cl)=CC2=O		35.1 µM		55.8 µM		16.4 µM		42.1 µM		> 86.4 µM		15.8 µM		44.8 µM		31.2 µM		21.7 µM		16 µM
Fc1ccc(-c2nn(-c3ccccc3)cc2-c2nc3ccccc3o2)cc1	13.4 µM	39.4 µM	3.46 µM	16.4 µM	1.79 µM	3.41 µM	3.25 µM	> 100 µM	4.82 µM	53.1 µM	0.539 µM	> 100 µM	7.98 µM	> 100 µM	9 µM	28.3 µM	5.72 µM	19.3 µM	3.43 µM	> 100 µM
O=C1c2ccccc2-c2c1c1cc3c(cc1c(=O)n2CCCCl)OCO3	19.2 µM	> 100 µM	36.3 µM	> 100 µM	29.4 µM	> 100 µM	24.1 µM	> 100 µM	> 100 µM	> 100 µM	17.7 µM	> 100 µM	24.4 µM	> 100 µM	> 100 µM	> 100 µM	33.5 µM	> 100 µM	66.1 µM	> 100 µM
CC1=C(CCCOC(=O)NCCCl)C2=C(C)C3(CC3)[C@@](C)(O)C(=O)C2=C1	2.63 µM	8.03 µM	3.42 µM	> 100 µM	5.07 µM	99.4 µM	10.5 µM	88.2 µM	3.83 µM	> 100 µM	2.24 µM	> 100 µM	2.35 µM	7.24 µM	2.31 µM	4.96 µM	1.73 µM	3.35 µM	9.4 µM	> 100 µM
CN1CCN(Cc2ccc(NC(=O)c3cncc(C#Cc4cnc(N)c5ccccc45)c3)cc2C(F)(F)F)CC1	0.513 µM	0.988 µM	0.342 µM	0.93 µM	0.348 µM	0.783 µM	0.0148 µM	0.43 µM	0.563 µM	1.22 µM	0.371 µM	0.892 µM	0.42 µM	0.878 µM	0.196 µM	0.697 µM	0.537 µM	0.994 µM	0.125 µM	1.44 µM
CN(C)c1ccc(/C=C2\C[N+](C)(C)C/C(=C\c3ccc(N(C)C)cc3)C2=O)cc1		37.4 µM		> 100 µM		30 µM		19.1 µM		45.4 µM		30.5 µM		22.1 µM		36.1 µM		23.6 µM		38.9 µM
COc1cccc(-c2nn(-c3ccccc3)cc2-c2ccnc(NCCCNS(=O)(=O)c3cccc(F)c3)c2)c1	6.82 µM	> 100 µM	6.34 µM	> 100 µM	3.68 µM	58.8 µM	3.38 µM	> 100 µM			3.21 µM	> 100 µM	3.92 µM	> 100 µM	2.59 µM	8.32 µM	1.86 µM	3.77 µM	4.62 µM	> 100 µM
CCOc1ccc2nc(NC(=O)/C(CC(=O)CC(C3=C(O)c4ccccc4CC3=O)c3ccccc3)=N\O)sc2c1 (stereo unspecified)		> 100 µM		> 100 µM		> 100 µM		> 100 µM		> 100 µM		> 100 µM		> 100 µM		> 100 µM		> 100 µM		> 100 µM
CN1CCN(C(=S)N(C)C(=O)c2ccc(Cl)cc2)CC1		> 100 µM		> 100 µM		> 100 µM		> 100 µM		> 100 µM		> 100 µM		> 100 µM		> 100 µM		> 100 µM		> 100 µM
Cn1c(-c2nonc2N)nc2cnccc21	> 25 µM	> 25 µM	> 25 µM	> 25 µM	> 25 µM	> 25 µM	> 25 µM	> 25 µM	> 25 µM	> 25 µM	> 25 µM	> 25 µM	> 25 µM	> 25 µM	> 25 µM	> 25 µM	> 25 µM	> 25 µM	> 25 µM	> 25 µM
O=c1c(Cl)c(Cl)cnn1-c1ccccc1		6.54 µM and 7.29 µM		26.9 µM and 37.6 µM		3.58 µM and 3.73 µM		21.3 µM and 23.5 µM	4.93 µM and > 23.2 µM	13.7 µM and > 41.7 µM		18.9 µM and 13.6 µM		9.66 µM and 6.39 µM		15.5 µM and 14.5 µM	2.42 µM and 7.82 µM	5.66 µM and 14.2 µM	0.825 µM and 1.8 µM	9.58 µM and 5.53 µM
CC1(C)N=C(N)N=C(N)N1c1ccc(CCCCc2ccc(S(=O)(=O)F)cc2Cl)c(Cl)c1		13.4 µM		200 µM		> 500 µM		9.77 µM		125 µM		28.7 µM		67.1 µM		20.3 µM		31.7 µM		8.28 µM
